# Key:
# [1] = biological target: T1, PD-L1 (Homo sapiens, UniProt Q9NZQ7); experiment: PD-L1/PD-L1 dimerization biochemical protein-protein interaction assay (ALPHA); assay type: binding; details: compound-induced PD-L1 dimerization, head prints '1 nM' (0.5 nM His-tagged PD-L1 and 0.5 nM FLAG-tagged PD-L1), read-out: AC50 PDL1 Dimer Alpha 1 nM
# T1 construct: determine if they can specifically dimerize the extracellular domains of PD-L1
# Experimental: PD-L1/PD-L1 Dimerization Biochemical Protein-Protein Interaction Assay:
# Compounds were tested in biochemical protein-protein interaction assays to determine if they can specifically dimerize the extracellular domains of PD-L1. Dimerization of the proteins (His-tagged PD-L1 and FLAG-tagged PD-L1) is measured using a bead based Amplified Luminescent Proximity Homogeneous Assay (ALPHA) platform. […] Assays are performed in 25 mM Hepes (pH 7.4), 150 mM NaCl, 3.4 mM EDTA, 0.005% Tween 20, and 0.01% BSA. Final protein concentration in the assays were 0.5 nM (His tagged PD-L) and 0.5 nM (FLAG tagged PD-L1). After an assay reaction time of 2 hours at 25° C., 20 μg/mL (final assay concentration) ALPHA assay acceptor beads (anti-His coated) were added and incubated for 60 minutes at 25° C. Binding was measured following a final 60 minute incubation with 40 μg/mL (final assay concentration) ALPHA assay donor beads (anti-FLAG coated). AC50 values were calculated from the fit of the dose-response curves to a four-parameter equation (Table 3).
# [2] = biological target: T2, PD-1/PD-L1 interaction (Homo sapiens, UniProt Q9NZQ7); experiment: PD-1/PD-L1 NFAT reporter co-culture assay; assay type: cell-based; details: Jurkat PD-1 NFAT-luciferase cells co-cultured with aAPC-PD-L1 CHO cells, 6 hrs at 37° C.; read-out: EC50 NFAT Luciferase
# T2 construct: expressed in transfected cells; host or cells: CHO cells (aAPC-PD-L1) co-cultured with Jurkat cells overexpressing PD-1 and an NFAT-luciferase reporter
# Outline: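 Luminescence (ONE-Glo) after 6 h, 37 °C co-culture reports NFAT-luciferase in PD-1 Jurkat cells, which PD-1/PD-L1 engagement suppresses. Partner cells: CHO expressing anti-CD3 and PD-L1. EC50 from four-parameter dose-response fit.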
# [3] = biological target: PD-1/PD-L1 (Homo sapiens, UniProt Q9NZQ7); experiment: PD-1/PD-L1 biochemical protein-protein interaction assay (ALPHA); assay type: binding; details: 0.3 nM His tagged PD-L1, 2.5 nM biotinylated Fc-PD-1, 60 minutes at 25° C., read-out: IC50 PD-L1-PD-1 Alpha IC50-mono PD-L1-fcP-D1
# Outline: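 Compound blockade of the PD-1/PD-L1 extracellular-domain interaction measured as reduced ALPHA signal after 60 min at 25 °C, pH 7.4 Hepes buffer with EDTA, Tween 20 and BSA. Final proteins: His-tagged PD-L1 0.3 nM, biotinylated Fc-PD-1 2.5 nM; four-parameter curve fit gives IC50.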
# T1 sequence (Q9NZQ7 19-238 limits assumed): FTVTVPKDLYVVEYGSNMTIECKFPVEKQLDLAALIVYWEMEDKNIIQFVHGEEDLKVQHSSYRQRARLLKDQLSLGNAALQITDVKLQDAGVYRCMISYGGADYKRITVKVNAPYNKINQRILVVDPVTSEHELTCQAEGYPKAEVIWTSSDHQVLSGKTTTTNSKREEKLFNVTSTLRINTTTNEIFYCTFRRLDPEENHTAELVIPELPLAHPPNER
# T1 sequence (Q9NZQ7 19-238 limits assumed): as above
# Sequence of PD-1/PD-L1 (Q9NZQ7 19-238 limits assumed): as above
# T2 sequence (Q9NZQ7 19-290): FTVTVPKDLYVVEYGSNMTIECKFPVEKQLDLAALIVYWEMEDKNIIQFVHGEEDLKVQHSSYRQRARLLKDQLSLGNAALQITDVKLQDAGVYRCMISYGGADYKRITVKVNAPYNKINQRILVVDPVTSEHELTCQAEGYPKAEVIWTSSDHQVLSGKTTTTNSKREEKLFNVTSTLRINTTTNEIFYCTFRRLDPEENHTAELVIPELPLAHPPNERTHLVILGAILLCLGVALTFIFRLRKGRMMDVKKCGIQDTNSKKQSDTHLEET
AC50 [1] [nM],EC50 [2] [nM],IC50 [3] [nM],Structure (SMILES)
76.2,283,0.348,"Cc1c(COc2cc(OCc3cncc(C#N)c3)c(CN[C@](C)(CO)C(=O)O)cc2Cl)cccc1-c1cccc(-c2ccc(OC3CN4CCC3CC4)cc2)c1C (stereo partly drawn) [Example 302, (2R)-2-((5-chloro-2-((5-cyanopyridin-3-yl)methoxy)-4-((2,2′-dimethyl-4″-(quinuclidin-3-yloxy)-[1,1′:3′,1″-terphenyl]-3-yl)methoxy)benzyl)amino)-3-hydroxy-2-methylpropanoic acid]"
150,1770,0.158,"Cc1c(COc2nc(OCc3cncc(C#N)c3)c(CN[C@@](C)(CO)C(=O)O)cc2Cl)cccc1-c1cccc(-c2ccc3c(c2)CC[C@@]3(CO)N(C)C)c1C [Example 305, (S)-2-(((5-chloro-2-((5-cyanopyridin-3-yl)methoxy)-6-((3′-((R)-1-(dimethylamino)-1-(hydroxymethyl)-2,3-dihydro-1H-inden-5-yl)-2,2′-dimethyl-[1,1′-biphenyl]-3-yl)methoxy)pyridin-3-yl)methyl)amino)-3-hydroxy-2-methylpropanoic acid]"
292,547,1.97,"Cc1c(COc2nc(OCc3cncc(C#N)c3)c(CNCCO)cc2Cl)cccc1-c1cccc(-c2ccc(C(O)CN(C)C)cc2)c1C (stereo not drawn) [Example 306, 5-(((5-chloro-6-((4″-(2-(dimethylamino)-1-hydroxyethyl)-2,2′-dimethyl-[1,1′:3′,1″-terphenyl]-3-yl)methoxy)-3-(((2-hydroxyethyl)amino)methyl)pyridin-2-yl)oxy)methyl)nicotinonitrile]"

# The remaining lines, values behind:
Structure (SMILES),AC50 [1] [nM],EC50 [2] [nM],IC50 [3] [nM]
"Cc1c(COc2cc(OCc3cncc(C#N)c3)c(CNC[C@@H](O)CC(=O)O)cc2Cl)cccc1-c1cccc(-c2ccc(CCN3CCCC3)cc2)c1C [Example 300, (S)-4-((5-chloro-2-((5-cyanopyridin-3-yl)methoxy)-4-((2,2′-dimethyl-4″-(2-(pyrrolidin-1-yl)ethyl)-[1,1′:3′,1″-terphenyl]-3-yl)methoxy)benzyl)amino)-3-hydroxybutanoic acid]",223,3720,0.673
"Cc1c(COc2cc(OCc3cncc(C#N)c3)c(CN[C@@](C)(CO)C(=O)O)cc2Cl)cccc1-c1c(F)ccc(-c2ccc(CN(C)C)cc2)c1Cl [Example 301, (2S)-2-((5-chloro-4-((2′-chloro-4″-((dimethylamino)methyl)-6′-fluoro-2-methyl-[1,1′:3′,1″-terphenyl]-3-yl)methoxy)-2-((5-cyanopyridin-3-yl)methoxy)benzyl)amino)-3-hydroxy-2-methylpropanoic acid]",95.9,1020,0.109
"CS(=O)(=O)c1cncc(COc2nc(OCc3cccc(-c4cccc(-c5ccc(OCCNCCO)cc5)c4Cl)c3Cl)c(Cl)cc2CN2C[C@@H](O)C[C@H]2C(=O)O)c1 [Example 303, (2S,4S)-1-((5-chloro-6-((2,2′-dichloro-4″-(2-((2-hydroxyethyl)amino)ethoxy)-[1,1′:3′,1″-terphenyl]-3-yl)methoxy)-2-((5-(methylsulfonyl)pyridin-3-yl)methoxy)pyridin-3-yl)methyl)-4-hydroxypyrrolidine-2-carboxylic acid]",101,289,0.166
"CC(C)(NCc1cc(Cl)c(OCc2cccc(-c3cccc(-c4ccc(OCCNCCO)cc4)c3Cl)c2Cl)nc1OCc1cncc(S(C)(=O)=O)c1)C(=O)O [Example 304, 2-(((5-chloro-6-((2,2′-dichloro-4″-(2-((2-hydroxyethyl)amino)ethoxy)-[1,1′:3′,1″-terphenyl]-3-yl)methoxy)-2-((5-(methylsulfonyl)pyridin-3-yl)methoxy)pyridin-3-yl)methyl)amino)-2-methylpropanoic acid]",16.5,79,0.064

# From US12590062B2, “PD-1/PD-L1 inhibitors” (Gilead Sciences, Inc., priority 2017, dated 2026)
